Data reported in ChEMBL document CHEMBL1773008 (ACS Med Chem Lett, 2010).
The source made the active and inactive calls. No cut-off for these calls is given here.

Experiments:
SK-BR-3 [1] = assay: Ratio of IC50 for compound to IC50 for novobiocin for human SKBR3 cells; format: functional
SK-BR-3 [2] = assay: Antiproliferative activity against human SKBR3 cells after 72 hrs by MTS assay; format: functional, cell-based; details: SK-BR-3, 72 h
MCF7 [3] = assay: Antiproliferative activity against human MCF7 cells after 72 hrs by MTS assay; format: functional, cell-based; details: MCF7, 72 h
[4] = molecular target: Heat shock protein HSP 90-beta (Homo sapiens) (UniProt P08238); assay: Inhibition of HSP90 in human MCF7 cells assessed as Raf degradation at 0.5 to 100 uM after 24 hrs by Western blot analysis; format: cell-based
Chain of Heat shock protein HSP 90-beta (Homo sapiens) (P08238 whole entry): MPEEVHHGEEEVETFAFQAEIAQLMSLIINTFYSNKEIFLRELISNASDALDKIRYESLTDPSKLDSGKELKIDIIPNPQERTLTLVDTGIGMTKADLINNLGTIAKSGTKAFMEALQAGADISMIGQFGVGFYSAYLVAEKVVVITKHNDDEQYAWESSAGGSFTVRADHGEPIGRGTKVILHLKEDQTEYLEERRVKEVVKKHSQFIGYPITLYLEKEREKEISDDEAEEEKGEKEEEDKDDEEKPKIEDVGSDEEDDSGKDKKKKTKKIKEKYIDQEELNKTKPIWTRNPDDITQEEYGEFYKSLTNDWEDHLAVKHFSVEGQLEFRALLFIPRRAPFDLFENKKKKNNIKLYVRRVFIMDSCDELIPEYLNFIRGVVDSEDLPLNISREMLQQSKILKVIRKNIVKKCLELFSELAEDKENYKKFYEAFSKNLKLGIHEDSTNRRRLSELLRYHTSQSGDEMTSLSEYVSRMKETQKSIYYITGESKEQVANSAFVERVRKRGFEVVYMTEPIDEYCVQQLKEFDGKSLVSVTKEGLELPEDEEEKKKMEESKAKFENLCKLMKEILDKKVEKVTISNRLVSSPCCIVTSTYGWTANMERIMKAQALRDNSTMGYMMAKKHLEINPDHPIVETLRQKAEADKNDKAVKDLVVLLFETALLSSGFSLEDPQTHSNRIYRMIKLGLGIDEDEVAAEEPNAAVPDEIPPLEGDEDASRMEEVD

[5] = molecular target: Heat shock protein HSP 90-beta (Homo sapiens) (UniProt P08238); assay: Inhibition of HSP90 in human MCF7 cells assessed as Akt degradation at 0.5 to 100 uM after 24 hrs by Western blot analysis; format: cell-based
[6] = molecular target: Heat shock protein HSP 90-beta (Homo sapiens) (UniProt P08238); assay: Inhibition of HSP90 in human MCF7 cells assessed as Akt degradation after 24 hrs by Western blot analysis; format: cell-based
[7] = molecular target: Heat shock protein HSP 90-beta (Homo sapiens) (UniProt P08238); assay: Inhibition of HSP90 in human MCF7 cells assessed as Raf degradation after 24 hrs by Western blot analysis; format: cell-based
[8] = molecular target: Heat shock protein HSP 90-beta (Homo sapiens) (UniProt P08238); assay: Inhibition of HSP90 in human MCF7 cells assessed as Her2 degradation at after 24 hrs by Western blot analysis; format: cell-based
SK-BR-3 [9] = assay: Ratio of IC50 for compound to IC50 for DHN2 for human SKBR3 cells; format: functional
MCF7 [10] = assay: Ratio of IC50 for compound to IC50 for novobiocin for human MCF7 cells; format: functional
[11] = molecular target: Heat shock protein HSP 90-beta (Homo sapiens) (UniProt P08238); assay: Inhibition of HSP90 in human MCF7 cells assessed as Her2 degradation at 0.5 to 100 uM after 24 hrs by Western blot analysis; format: cell-based
[12] = molecular target: Heat shock protein HSP 90-beta (Homo sapiens) (UniProt P08238); assay: Inhibition of HSP90 in human MCF7 cells assessed as Her2 degradation at 0.5 to 7.5 uM after 24 hrs by Western blot analysis; format: cell-based
[13] = molecular target: Heat shock protein HSP 90-beta (Homo sapiens) (UniProt P08238); assay: Inhibition of HSP90 in human MCF7 cells assessed as Raf degradation at 0.5 to 7.5 uM after 24 hrs by Western blot analysis; format: cell-based
[14] = molecular target: Heat shock protein HSP 90-beta (Homo sapiens) (UniProt P08238); assay: Inhibition of HSP90 in human MCF7 cells assessed as Akt degradation at 0.5 to 7.5 uM after 24 hrs by Western blot analysis; format: cell-based

SMILES | IC50 (SK-BR-3 [2]) [µM] | IC50 (MCF7 [3]) [µM] | Ratio IC50 (SK-BR-3 [1]) | further results
CC(C)=CCc1cc(C(=O)Nc2cc3ccc(O[C@@H]4OCCC[C@H]4O)c(C)c3oc2=O)ccc1O | 30 | 10.2 | 1500 | –
CO[C@@H]1[C@@H](O)[C@@H](O)[C@H](Oc2ccc3cc(NC(=O)c4ccc(O)c(CC=C(C)C)c4)c(=O)oc3c2C)OC1(C)C | 10.9 | 11.3 | 1500 | –
CNCCOc1ccc2cc(NC(=O)c3ccc(O)c(CC=C(C)C)c3)c(=O)oc2c1C | 0.75 | 1.33 | – | –
CC(C)=CCc1cc(C(=O)Nc2cc3ccc(O[C@@H]4OCC[C@@H](O)[C@H]4O)c(C)c3oc2=O)ccc1O | 6.96 | 13.3 | 1500 | –
CC(C)=CCc1cc(C(=O)Nc2cc3ccc(O[C@H]4OCC[C@@H](O)[C@H]4O)c(C)c3oc2=O)ccc1O | 10.7 | 10 | 1500 | –
CC(C)=CCc1cc(C(=O)Nc2cc3ccc(OC4CCNCC4)c(C)c3oc2=O)ccc1O | 0.47 | 0.85 | – | inhibition [12]: Active; inhibition [13]: Active; inhibition [14]: Active; inhibition [6]: Dose-dependent effect; inhibition [7]: Dose-dependent effect; inhibition [8]: Dose-dependent effect
CC(C)=CCc1cc(C(=O)Nc2cc3ccc(O[C@H]4OCCC[C@H]4O)c(C)c3oc2=O)ccc1O | 7.87 | 6.45 | 1500 | –
CC(=O)Oc1ccc(C(=O)Nc2cc3ccc(OC4CCN(C)CC4)c(C)c3oc2=O)cc1CC=C(C)C | 0.58 | 1.18 | – | –
CC(=O)Oc1ccc(C(=O)Nc2cc3ccc(OC4CCCNC4)c(C)c3oc2=O)cc1CC=C(C)C (stereo unspecified) | 1.23 | 1.54 | – | –
CC(C)=CCc1cc(C(=O)Nc2cc3ccc(OC4CCN(C)CC4)c(C)c3oc2=O)ccc1O | – | 1.09 | – | –
CC(=O)Oc1ccc(C(=O)Nc2cc3ccc(OC4CCNCC4)c(C)c3oc2=O)cc1CC=C(C)C | 0.56 | 1.53 | – | –
CC(C)=CCc1cc(C(=O)Nc2cc3ccc(OCCCN(C)C)c(C)c3oc2=O)ccc1O | 0.44 | 1.35 | – | –
CC(=O)Oc1ccc(C(=O)Nc2cc3ccc(OCCCN(C)C)c(C)c3oc2=O)cc1CC=C(C)C | 0.46 | 1.18 | – | –
CC(=O)Oc1ccc(C(=O)Nc2cc3ccc(OCCN(C)C)c(C)c3oc2=O)cc1CC=C(C)C | 1.32 | 4.76 | – | –

Further lines, with some results ahead:

IC50 (SK-BR-3 [2]) [µM] | IC50 (MCF7 [3]) [µM] | SMILES | Ratio IC50 (SK-BR-3 [1]) | further results
1.42 | 1.57 | CC(=O)Oc1ccc(C(=O)Nc2cc3ccc(OC4CCCN(C)C4)c(C)c3oc2=O)cc1CC=C(C)C (stereo unspecified) | – | –
21.5 | 22.5 | CC(C)=CCc1cc(C(=O)Nc2cc3ccc(O[C@H]4C[C@H](O)CO4)c(C)c3oc2=O)ccc1O | 1500 | –
5.07 | 1.34 | CC(C)=CCc1cc(C(=O)Nc2cc3ccc(O[C@@H]4C[C@H](O)CCO4)c(C)c3oc2=O)ccc1O | 1500 | –
3.11 | 1.56 | CC(C)=CCc1cc(C(=O)Nc2cc3ccc(O[C@H]4C[C@H](O)CCO4)c(C)c3oc2=O)ccc1O | 200 | inhibition [4]: Active; inhibition [5]: Active; inhibition [6]: Dose-dependent effect; inhibition [7]: Dose-dependent effect; inhibition [8]: Dose-dependent effect; Ratio IC50 (SK-BR-3 [9]): 3; Ratio IC50 (MCF7 [10]): 200; inhibition [11]: Active
0.79 | 1.68 | CC(C)=CCc1cc(C(=O)Nc2cc3ccc(OC4CCCNC4)c(C)c3oc2=O)ccc1O (stereo unspecified) | – | –
22.2 | > 100 | CC(C)=CCc1cc(C(=O)Nc2cc3ccc(O[C@@H]4C[C@H](O)CO4)c(C)c3oc2=O)ccc1O | 1500 | –
4.69 | 10.1 | CC(C)=CCc1cc(C(=O)Nc2cc3ccc(OC4CCCN(C)C4)c(C)c3oc2=O)ccc1O (stereo unspecified) | – | –
14.4 | 14.3 | CC(C)=CCc1cc(C(=O)Nc2cc3ccc(O[C@@H]4OC[C@@H](O)[C@H]4O)c(C)c3oc2=O)ccc1O | 1500 | –
9.45 | 13.5 | CC(C)=CCc1cc(C(=O)Nc2cc3ccc(OCCN(C)C)c(C)c3oc2=O)ccc1O | – | –
0.91 | 2.08 | CNCCOc1ccc2cc(NC(=O)c3ccc(OC(C)=O)c(CC=C(C)C)c3)c(=O)oc2c1C | – | –
